According to the NIST ThermoML archive (doi:10.1021/je050183a):
± gives the expanded uncertainty stated by the source.

Assays:
[1] = refractive index (Na D-line) (dimensionless); settings: 298.15 K; 101.33 kPa; Liquid; Standard Abbe refractometry
[2] = 101 kPa, Liquid; for viscosity: Capillary tube (Ostwald / Ubbelohde) method; for speed of sound: Linear variable-path acoustic interferometer; for mass density: Pycnometric method
[3] = refractive index (Na D-line) (dimensionless); xn = mol fraction of the nth substance listed; settings: 298.15 K, 101 kPa, Liquid, Standard Abbe refractometry
[4] = xn = mol fraction of the nth substance listed; settings: 101 kPa, Liquid; for viscosity: Capillary tube (Ostwald / Ubbelohde) method; for speed of sound: Linear variable-path acoustic interferometer; for mass density: Pycnometric method

CC1OC(C)OC(C)O1 (configuration not stated) [2,4,6-trimethyl-1,3,5-trioxane]
Settings	refractive index
[1]	1.4029 ± 0.0008

[2]
Settings	mass density [kg/m3]	speed of sound [m/s]	viscosity [mPa·s]
288.15 K	999.69 ± 1.3	1217.7 ± 2.7	1.374 ± 0.018
298.15 K	988.35 ± 1.3	1174.5 ± 2.6	1.107 ± 0.015

CC1OC(C)OC(C)O1 (configuration not stated) [2,4,6-trimethyl-1,3,5-trioxane] + CC1COC(=O)O1
[3]
Settings	refractive index
x1 = 0.091	1.4188 ± 0.0008
x1 = 0.2019	1.4172 ± 0.0008
x1 = 0.3007	1.4157 ± 0.0008
x1 = 0.4055	1.4142 ± 0.0008
x1 = 0.5011	1.4127 ± 0.0008
x1 = 0.6022	1.4111 ± 0.0008
x1 = 0.7006	1.4094 ± 0.0008

[4]
Settings	mass density, 288.15 K [kg/m3]	mass density, 298.15 K [kg/m3]	speed of sound, 288.15 K [m/s]	speed of sound, 298.15 K [m/s]	viscosity, 288.15 K [mPa·s]	viscosity, 298.15 K [mPa·s]
x1 = 0.091	1181.68 ± 1.5	1170.78 ± 1.4	1451.8 ± 2.8	1415 ± 2.8	2.966 ± 0.038	2.386 ± 0.032
x1 = 0.2019	1151.81 ± 1.5	1141.1 ± 1.4	1420.2 ± 2.8	1382.6 ± 2.8	2.809 ± 0.036	2.245 ± 0.03
x1 = 0.3007	1127.63 ± 1.4	1117.02 ± 1.4	1392.9 ± 2.8	1354.5 ± 2.8	2.661 ± 0.035	2.116 ± 0.028
x1 = 0.4055	1104.07 ± 1.4	1093.5 ± 1.4	1364.7 ± 2.8	1325.5 ± 2.7	2.494 ± 0.033	1.977 ± 0.027
x1 = 0.5011	1084.21 ± 1.4	1073.63 ± 1.4	1339.7 ± 2.8	1299.9 ± 2.7	2.333 ± 0.031	1.846 ± 0.025
x1 = 0.6022	1064.71 ± 1.4	1054.05 ± 1.3	1314 ± 2.7	1273.4 ± 2.7	2.155 ± 0.028	1.705 ± 0.023
x1 = 0.7006	1046.98 ± 1.4	1036.19 ± 1.4	1289.8 ± 2.7	1248.5 ± 2.7	1.974 ± 0.026	1.563 ± 0.021
x1 = 0.8028	1029.73 ± 1.4	–	1265.5 ± 2.7	–	1.779 ± 0.023	–
x1 = 0.9027	1014 ± 1.4	–	1242.1 ± 2.7	–	1.581 ± 0.021	–
x1 = 1	999.69 ± 1.4	–	1217.7 ± 2.7	–	1.374 ± 0.018	–

CC1COC(=O)O1 (configuration not stated) [4-methyl-1,3-dioxolan-2-one]
Settings	refractive index
[1]	1.4203 ± 0.0008

[2]
Settings	mass density [kg/m3]	speed of sound [m/s]	viscosity [mPa·s]
288.15 K	1208.67 ± 1.5	1478.4 ± 2.8	3.086 ± 0.04
298.15 K	1197.58 ± 1.5	1442.3 ± 2.8	2.499 ± 0.033

CC1COC(=O)O1 (configuration not stated) [4-methyl-1,3-dioxolan-2-one] + CC1OC(C)OC(C)O1
Settings	refractive index
[3], x2 = 0	1.4203 ± 0.0008

[4], x2 = 0
Settings	mass density [kg/m3]	speed of sound [m/s]	viscosity [mPa·s]
288.15 K	1208.67 ± 1.5	1478.4 ± 2.8	3.086 ± 0.04
298.15 K	1197.58 ± 1.5	1442.3 ± 2.8	2.499 ± 0.033

CCOC(=O)OCC [diethyl carbonate]
Settings	refractive index
[1]	1.383 ± 0.0008

[2]
Settings	mass density [kg/m3]	speed of sound [m/s]	viscosity [mPa·s]
288.15 K	980.41 ± 1.3	1225.6 ± 2.7	0.868 ± 0.011
298.15 K	969.15 ± 1.3	1173.4 ± 2.7	0.749 ± 0.01

CCOC(=O)OCC [diethyl carbonate] + CC1OC(C)OC(C)O1
Settings	refractive index
[3], x2 = 0	1.383 ± 0.0008

[4], x2 = 0
Settings	mass density [kg/m3]	speed of sound [m/s]	viscosity [mPa·s]
288.15 K	980.41 ± 1.3	1225.6 ± 2.7	0.868 ± 0.011
298.15 K	969.15 ± 1.3	1173.4 ± 2.7	0.749 ± 0.01

COC(=O)OC [dimethyl carbonate]
Settings	refractive index
[1]	1.366 ± 0.0008

[2]
Settings	mass density [kg/m3]	speed of sound [m/s]	viscosity [mPa·s]
288.15 K	1076.43 ± 1.5	1242 ± 2.7	0.647 ± 0.009
298.15 K	1063.1 ± 1.5	1197.4 ± 2.7	0.579 ± 0.008

COC(=O)OC [dimethyl carbonate] + CC1OC(C)OC(C)O1
Settings	refractive index
[3], x2 = 0	1.366 ± 0.0008

[4], x2 = 0
Settings	mass density [kg/m3]	speed of sound [m/s]	viscosity [mPa·s]
288.15 K	1076.43 ± 1.5	1242 ± 2.7	0.647 ± 0.009
298.15 K	1063.1 ± 1.5	1197.4 ± 2.7	0.579 ± 0.008
